Measured values from patent US20090163481A1, “PPAR-DELTA LIGANDS AND METHODS OF THEIR USE” (priority 2007, published 2009).

Legend:
A549 = experiment: Alamar Blue proliferation assay, A549; assay type: cell-based; conditions: Homo sapiens, 96 h; A549, 0-40 μM, 0.5% serum, 4 days; read-out: IC50 for growth inhibition
Experimental: (§1) The effect of SR13904 on the proliferation of these cell lines was determined by an Alamar Blue assay. Exponentially growing cells were treated with a range of SR13904 concentrations (0-40 μM; in 0.5% serum) over 4 days and proliferation curves were determined. The IC50 values for growth inhibition by SR13904 for each cell line were determined. […] In addition, colony formation assays with SR13904 were performed with both A549 and Huh7 cells.

PPARγ LBD = molecular target: T1, PPARγ LBD (Homo sapiens, UniProt P37231); experiment: PPARγ LBD binding and transactivation (ciglitazone competition); assay type: cell-based; conditions: data not shown
T1 construct: expressed in transfected cells; host or cells: U2-OS (inferred from the general testing procedure)
T1 sequence (P37231 238-503 limits assumed): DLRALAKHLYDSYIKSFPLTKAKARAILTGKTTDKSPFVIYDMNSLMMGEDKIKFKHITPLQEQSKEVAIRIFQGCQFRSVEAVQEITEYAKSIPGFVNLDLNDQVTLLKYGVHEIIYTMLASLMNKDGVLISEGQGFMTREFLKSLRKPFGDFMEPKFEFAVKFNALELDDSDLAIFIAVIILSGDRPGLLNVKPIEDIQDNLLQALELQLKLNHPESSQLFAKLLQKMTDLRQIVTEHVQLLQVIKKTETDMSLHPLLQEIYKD
Description: Based on the cellular and molecular data generated, treatment of prostate cancer cells with SR 13904 attenuates a number of pro-tumorigenic activities that are likely to be associated with PPARδ. Furthermore, this nuclear receptor is now believed to be a master regulator of nuclear receptors, including both PPARγ and PPARα, and as such the inhibition of PPARδ activity modulates the other target transcription factors.

PC-3 cells = experiment: Alamar Blue proliferation assay, PC-3; assay type: cell-based; conditions: Homo sapiens, 96 h; PC-3, 0-40 μM, 0.5% serum, 4 days; read-out: IC50 for growth inhibition
Experimental: as §1

A549 cells = experiment: Cell cycle distribution by flow cytometry in A549 cells; assay type: cell-based, human; conditions: A549, 2% FBS, 15 μM, after 24 h
Experimental: Referring now to FIG. 5A, SR13904 exerts inhibitory effects on the cell cycle. A representative experiment in which A549 cells were grown in phenol-red-free DMEM+2% charcoal-treated FBS □ SR13904 ([…]). Cells were treated in the exponential phase and assessed by flow cytometry at 24 and 48 h.
Referring now to FIG. 5B, SR13904 treatment arrests A549 cells in the G1 phase of the cell cycle. A549 cells were incubated in 2% FBS (to maintain a high proliferative state) and the cell-cycle profile was determined by flow cytometry after SR13904 treatment (15 μM) for 24 and 48 h, and compared with similar treatment by a control. […] All differences (SR13904-treated vs. vehicle control-treated) were significant; the G1 differences were highly significant (**p=0.001-0.01, ***p=<0.001). The results provide confirming evidence that activated PPARδ increases cell cycle progression through a positive effect on G1-phase cells, and that PPARδ activation upregulates CDK2, CDK4, and cyclin D1 expression patterns.

PPARδ = molecular target: T2, PPARδ (Homo sapiens, UniProt Q03181); experiment: PPRE promoter/luciferase reporter (transactivation) assay in U2-OS cells; assay type: cell-based
T2 construct: expressed in transfected cells; host or cells: U2-OS (human bone cancer line)
T2 sequence (Q03181 1-441): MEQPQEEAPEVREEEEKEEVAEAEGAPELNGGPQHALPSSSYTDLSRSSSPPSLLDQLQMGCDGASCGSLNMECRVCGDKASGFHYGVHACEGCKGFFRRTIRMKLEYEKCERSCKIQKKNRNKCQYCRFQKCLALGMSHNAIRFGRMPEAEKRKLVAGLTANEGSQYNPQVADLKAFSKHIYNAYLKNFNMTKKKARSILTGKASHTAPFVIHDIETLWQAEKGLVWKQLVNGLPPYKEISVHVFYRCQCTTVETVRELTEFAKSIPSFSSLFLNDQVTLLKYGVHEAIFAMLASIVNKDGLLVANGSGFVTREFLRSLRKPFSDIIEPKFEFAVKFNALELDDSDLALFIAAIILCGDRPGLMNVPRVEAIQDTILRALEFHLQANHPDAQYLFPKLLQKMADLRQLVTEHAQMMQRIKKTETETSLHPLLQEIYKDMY
Experimental: General Testing Procedures. Each ligand was screened for PPARδ binding and transactivation activity through the use of two complementary reporter assays as described below. In both systems, transfection efficiency was standardized by co-transfection of a control Renilla luciferase. U2-OS (human bone cancer line) cells were used for both assays because this is the cell line of choice for screening PPAR ligands. At 18 h post-transfection, GW 501, with and without the ligands of the disclosure, was added to the cells and incubated for an additional 24 h. The cells were then harvested and luciferase activities profiled.
A promoter/luciferase reporter assay. This assay involves co-transfection of a PPARδ expression vector and a plasmid containing a luciferase gene under the control of PPARδ responsive DNA element (three copies of a consensus PPAR response element, PPRE). This assay was used to directly test ligand effects on PPARδ-responsive genes.
Referring to FIG. 3, U2-OS cells were transiently transfected with appropriate expression and reporter vectors. Ligands were added to the cell cultures 24 h post-transfection and incubated for an additional 16 h. Lipoprotein lipase (LPL; 2 μg/ml) was added with VLDL (5 μg/ml) to release PPARδ-active triglycerides. FIG. 3A: PPARδ LBD/Gal4/UAS-tk-luc competition assays with VLDL SR13904 (0-10 μM). The reporter activation (fold increase over blank) is presented relative to GW501516 at 7 nM (fold increase over blank=100). FIG. 3B: PPRE reporter assays using 0, 1, and 10 μM SR13904+VLDL. All assays were repeated in triplicate.

Huh7 = experiment: Alamar Blue proliferation assay, Huh7; assay type: cell-based; conditions: Homo sapiens, Huh-7, 96 h; Huh7, 0-40 μM, 0.5% serum, 4 days; read-out: IC50 for growth inhibition
Experimental: as §1

SMILES: Cc1cc(SCc2sc(-c3cccc4ccccc34)nc2C)ccc1OCC(=O)O [SR 13904]
- IC50 (A549): 8 to 10 µM
- interference with ciglitazone binding to PPARγ LBD and transactivation (PPARγ LBD): interfere with ciglitazone binding
- IC50 (PC-3 cells): > 30 µM
- fraction of cells in the G1 phase (A549 cells): significantly increased
- fraction of cells in the S phase (A549 cells): decreased
- inhibition of PPARδ-mediated transactivation (PPARδ): appear to inhibit
- reporter expression via PPRE in combination with GW 501 (PPARδ; 1 μM ligand): significantly decreased
- reporter expression via PPRE in combination with GW 501 (PPARδ; 10 μM ligand): completely inhibited
- transcription activation of the PPRE reporter to GW501 (PPARδ; 1 and 10 μM ligand with GW501): completely eliminated
- VLDL-related activation of the PPAR promoter element (PPRE) construct (PPARδ; co-treatment with 1 μM): completely block
- IC50 (Huh7): 8 to 10 µM
